Measurements: ChEMBL document CHEMBL4739717, “Methods of treating cartilage disorders through inhibition of clk and dyrk” (2020)
The source made the active and inactive calls. The rule behind the calls is not given here.

How the values were obtained:
[1] = molecular target: Dual specificity tyrosine-phosphorylation-regulated kinase 1A (Homo sapiens, UniProt Q13627); assay: Inhibition of recombinant DYRK1A (unknown origin) using Ser/Thr 18 peptide as substrate incubated for 1 hr in presence of ATP by FRET assay
[2] = Effect on Wnt signaling pathway in human SW480 cells harbouring TCF/LEF luciferase reporter gene and SP5-Luc reporter gene incubated for 36 to 48 hrs by luminescence assay; assay type: cell-based
[3] = Inhibition of IL1-beta induced MMP3 expression levels in human chondrocytes assessed as MMP3 levels incubated for 2hrs followed by IL1-beta stimulation and measured after overnight incubation by LANCE assay; assay type: functional, cell-based; settings: Chondrocyte
[4] = Induction of chondrogenesis in human MSC assessed as maximum activity at 900 nM incubated for 6 days by rhodamine B and Nile red staining based imaging analysis relative to control; assay type: functional; settings: BMMSC, 144 h, time 6 day
[5] = system: Chondrocyte; assay: Inhibition of IL1-beta induced MMP3 expression levels in human chondrocytes assessed as MMP3 levels incubated for 2hrs followed by IL1-beta stimulation and measured after 24 hrs by qRT-PCR analysis; assay type: functional; settings: time 26.0 hrs
[6] = system: Chondrocyte; assay: Inhibition of IL1-beta induced MMP-13 expression levels in human chondrocytes assessed as MMP-13 levels incubated for 2hrs followed by IL1-beta stimulation and measured after 24 hrs by qRT-PCR analysis; assay type: functional; settings: time 26.0 hrs
[7] = system: Chondrocyte; assay: Inhibition of IL1-beta induced MMP1 expression levels in human chondrocytes assessed as MMP1 levels incubated for 2hrs followed by IL1-beta stimulation and measured after 24 hrs by qRT-PCR analysis; assay type: functional; settings: time 26.0 hrs
[8] = Induction of chondrogenesis in human MSC assessed as incubated for 6 days by rhodamine B and Nile red staining based imaging analysis; assay type: functional; settings: bmmsc
[9] = Induction of chondrogenesis in human MSC assessed as maximum activity at 30 nM incubated for 6 days by rhodamine B and Nile red staining based imaging analysis relative to control; assay type: functional; settings: BMMSC, 144 h, time 6 day
[10] = Induction of chondrogenesis in human MSC assessed as maximum activity at 61.73 nM incubated for 6 days by rhodamine B and Nile red staining based imaging analysis relative to control; assay type: functional; settings: BMMSC, 144 h, time 6 day
[11] = molecular target: Dual specificity protein kinase CLK3 (Homo sapiens, UniProt P49761); assay: Inhibition of recombinant CLK3 (unknown origin) using Ser/Thr 18 peptide as substrate incubated for 1 hr in presence of ATP by FRET assay
[12] = molecular target: Dual specificity protein kinase CLK2 (Homo sapiens, UniProt P49760); assay: Inhibition of recombinant CLK2 (unknown origin) using Ser/Thr 6 peptide as substrate incubated for 1 hr in presence of ATP by FRET assay
[13] = Induction of chondrogenesis in human MSC assessed as maximum activity at 185.19 nM incubated for 6 days by rhodamine B and Nile red staining based imaging analysis relative to control; assay type: functional; settings: BMMSC, 144 h, time 6 day
[14] = Induction of chondrogenesis in human MSC assessed as maximum activity at 5000 nM incubated for 6 days by rhodamine B and Nile red staining based imaging analysis relative to control; assay type: functional; settings: BMMSC, 144 h, time 6 day
[15] = Induction of chondrogenesis in human MSC assessed as maximum activity at 1700 nM incubated for 6 days by rhodamine B and Nile red staining based imaging analysis relative to control; assay type: functional; settings: BMMSC, 144 h, time 6 day
[16] = Induction of chondrogenesis in human MSC assessed as maximum activity at 100 nM incubated for 6 days by rhodamine B and Nile red staining based imaging analysis relative to control; assay type: functional; settings: BMMSC, 144 h, time 6 day

Chain of Dual specificity protein kinase CLK3 (P49761 whole entry): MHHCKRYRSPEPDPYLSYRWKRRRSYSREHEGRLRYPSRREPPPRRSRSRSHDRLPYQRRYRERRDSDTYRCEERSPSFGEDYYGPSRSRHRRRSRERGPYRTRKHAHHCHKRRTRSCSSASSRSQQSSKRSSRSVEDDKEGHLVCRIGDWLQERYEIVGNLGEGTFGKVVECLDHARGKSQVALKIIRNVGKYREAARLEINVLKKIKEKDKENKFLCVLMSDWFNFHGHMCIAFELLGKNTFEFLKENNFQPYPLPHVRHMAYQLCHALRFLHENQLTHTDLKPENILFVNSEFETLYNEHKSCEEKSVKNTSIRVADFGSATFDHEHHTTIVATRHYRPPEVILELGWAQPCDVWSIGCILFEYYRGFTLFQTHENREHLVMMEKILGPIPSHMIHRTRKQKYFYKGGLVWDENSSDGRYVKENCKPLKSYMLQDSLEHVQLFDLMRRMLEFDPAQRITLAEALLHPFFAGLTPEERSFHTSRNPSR
Chain of Dual specificity protein kinase CLK2 (P49760 whole entry): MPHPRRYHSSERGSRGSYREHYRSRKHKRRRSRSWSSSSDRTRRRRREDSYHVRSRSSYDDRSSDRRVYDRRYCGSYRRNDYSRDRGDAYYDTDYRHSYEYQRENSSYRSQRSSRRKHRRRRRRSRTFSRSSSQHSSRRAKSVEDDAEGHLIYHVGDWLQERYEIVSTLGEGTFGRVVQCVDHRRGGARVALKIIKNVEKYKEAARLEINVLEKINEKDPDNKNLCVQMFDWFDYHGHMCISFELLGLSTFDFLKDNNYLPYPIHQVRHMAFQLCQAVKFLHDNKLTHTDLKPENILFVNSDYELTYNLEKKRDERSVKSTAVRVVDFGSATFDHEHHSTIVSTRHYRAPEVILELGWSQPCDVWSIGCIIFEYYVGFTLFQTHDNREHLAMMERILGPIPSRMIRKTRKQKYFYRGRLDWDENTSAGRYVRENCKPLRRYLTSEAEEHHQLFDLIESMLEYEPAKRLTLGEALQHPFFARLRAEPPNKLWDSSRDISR

EC50 [1] [nM] | EC50 [2] [nM] | EC50 [3] [nM] | EC50 [8] [nM] | Compound | Emax at 0.06173 µM [10] [%] | other results
– | > 10000 | 10 | 30 | O=C1CCc2cccc(c2)-c2cncc(c2)NC(=O)c2n[nH]c3ccc(cc23)-c2cncc(c2)CN1 | – | Activity [5]: inactive; Activity [6]: inactive; Activity [7]: inactive; Emax at 0.03 µM [9]: 69.4%
36 | > 10000 | – | – | CCC(=O)Nc1cncc(-c2ccc3[nH]nc(-c4nc5c(-c6cccc(F)c6)ccnc5[nH]4)c3n2)c1 | 29.3 | –
1 | 84.3 | – | – | Cc1n[nH]c2ccc(-c3cncc(N[C@H]4CCNC[C@@H]4F)n3)cc12 | – | Activity [5]: inactive; Activity [6]: inactive; EC50 [11]: 424 nM; Activity [7]: inactive; EC50 [12]: 1 nM; Emax at 0.03 µM [9]: 25.6%
30 | > 10000 | – | – | CC(C)C(=O)Nc1cncc(-c2ccc3[nH]nc(-c4nc5c(-c6cccnc6)ccnc5[nH]4)c3n2)c1 | 26.1 | –
40 | – | – | 20.6 | COc1cncc(-c2ccc3[nH]nc(-c4nc5c(-c6cccc(F)c6)cncc5[nH]4)c3n2)c1 | 55.5 | –
2 | 577 | – | 5000 | CN1CCCCN(C)c2nccc3[nH]c(nc23)-c2c[nH]c3ccc(cc23)-c2cncc(c2)C1 | – | EC50 [11]: 12 nM; Emax at 5 µM [14]: 231%; EC50 [12]: 2 nM

The next lines start with the molecule.

Compound | EC50 [1] [nM] | EC50 [2] [nM] | EC50 [3] [nM] | EC50 [8] [nM] | Emax at 0.06173 µM [10] [%] | other results
CN(C)C(=O)Nc1cncc(-c2cnc3[nH]nc(-c4nc5c(-c6cccc(F)c6)cncc5[nH]4)c3c2)c1 | 4 | 10 | 40.6 | – | – | Emax at 0.9 µM [4]: 68.1%
Fc1ccc(-c2nnc(-c3n[nH]cc3/C=C/c3cccnc3)o2)cc1 | 15 | 1510 | 3000 | – | – | Activity [5]: inactive; Activity [6]: inactive; Emax at 0.9 µM [4]: 23.4%
COc1cncc(-c2ccc3[nH]nc(-c4nc5c(-c6cccc(F)c6)ccnc5[nH]4)c3n2)c1 | 51 | – | – | – | 47 | –
COc1cncc(C(=O)Nc2c[nH]nc2C(=O)Nc2ccc(N3CCC(F)(F)C3)nc2)c1 | 14 | 5.7 | 2.2 | 300 | – | EC50 [11]: > 10000 nM; Emax at 0.9 µM [4]: 124%
O=C(Nc1cccnc1)c1n[nH]c2ccc(-c3cncc(CN4CC5CC(C4)O5)c3)cc12 | – | 67 | 3000 | 900 | – | Emax at 0.9 µM [4]: 121%
CCCC(=O)Nc1cncc(-c2ccc3[nH]nc(-c4nc5c(-c6ccncc6)cncc5[nH]4)c3n2)c1 | 13 | 999 | – | – | – | Emax at 0.18519 µM [13]: 31%
CCNCc1cncc(-c2ccc3[nH]nc(-c4nc5c(-c6cc(F)cc(NCCN(C)C)c6)nccc5[nH]4)c3n2)c1 | 12 | > 10000 | – | – | 35.6 | –
Oc1cncc(-c2ccc3[nH]nc(-c4nc5c(-c6cccc(F)c6)nccc5[nH]4)c3n2)c1 | 24 | 460 | – | 6.86 | – | Emax at 0.18519 µM [13]: 56.7%
c1cc2cc(c1)-c1cncc3[nH]c(nc13)-c1n[nH]c3ccc(cc13)-c1cncc(c1)CNC2 | – | 41.8 | – | 200 | – | Emax at 1.7 µM [15]: 588%
Cc1n[nH]c2ccc(-c3cncc(OC[C@H](N)Cc4ccccc4)n3)cc12 | 4 | 256 | – | 30 | – | Emax at 0.1 µM [16]: 52.1%; Activity [5]: inactive; Activity [6]: inactive; Activity [7]: inactive
